Data set [1] in a line: Cell viability assay (CCK-8), MIA Paca-2. The format is cell-based. As to conditions: MIA Paca-2 cells (pancreatic carcinoma), MIA Paca-2, human pancreatic carcinoma, read-out: IC50 (μM) mean ± SD, cytotoxicity. The protocol:
(§1) In cellular experiments, cells are seeded into either 6-well or 96-well plates and incubated overnight, proceeding with treatments as described in the figure legends or methods section. The cell inoculation numbers are outlined as follows: For assays measuring cell viability, between 3,000 to 5,000 cells are seeded per well in 96-well plates. For other cellular assays, the seeding density ranges from 5×10^5 to 1×10^6 cells per well in 6-well plates.
(§2) Cells was plated into 96-well plates and incubated overnight prior to introduction of varying concentrations of compounds or control solvent. Following a 72-hour exposure period, cell viability was determined using a Cell Counting Kit-8 assay (Life-iLab, China). Dose-response curves were fitted using a four-parameter method facilitated by SoftMax Pro, which was subsequently used for the computation of IC50 values.

Data set [2] is described as follows: Cell viability assay (CCK-8), MC38. The data set is classed as cell-based. Conditions: mouse, MC38 cells (colorectal carcinoma), MC38, murine colorectal carcinoma, read-out: IC50 (μM) mean ± SD, cytotoxicity. As to the method:
as §1, §2

For data set [3], the system named is TNF-α, IL-6 and IL-1β mRNA in RAW264.7 macrophage cell line. The data set is described as follows: RT-PCR of cytokine mRNA in LPS-stimulated RAW264.7 macrophages. The data set is classed as cell-based, mouse. Conditions: 3 h pre-treatment, LPS 100 ng/mL 3 h. An excerpt: MK2 is recognized for inducing the production of pathological cytokines that fuel inflammation, including IL‐6, TNF‐α, and IL‐1β. These cytokines are the classic downstream target gene of MK2 and are identified as significant contributors to the risk of inflammation‐driven cancer,[34], [35], [36] such as colorectal cancer and hepatocellular carcinoma. Therefore, we assessed the transcriptional levels of these typical downstream cytokines in human monocytic THP‐1 cell‐line‐derived macrophage and the mouse RAW264.7 macrophage cell line under the influence of compound 11. […] Taken together, our findings corroborate that compound 11 effectively impedes the transcription and production of these key MK2 downstream pro‐inflammatory cytokines.
FIGURE 4 Targeting cellular MK2 signaling with irreversible inhibition by compound 11. […] (C) The inhibitory effects of compound 11 on TNF‐α and IL‐6 production in LPS‐stimulated RAW264.7 macrophages for 24 h, measured by ELISA. […]
(§3) Total RNA was extracted from cultured cells using the EZ‐press RNA Purification Kit (EZBioscience). Complementary DNA was synthesized using the ABScript III RT Master Mix for qPCR with gDNA remover (ABclonal Technology) and was quantified with primers listed in Table S5. The relative mRNA expression levels were quantified through qPCR using the SYBR green gene expression assay (ABclonal Technology).

The test system of a further data set is VEGF mRNA in THP-1 cells. The data set is described as follows: RT-PCR of VEGF in IL-4/IL-13 stimulated THP-1 cells. The format is cell-based, human. As to conditions: IL-4/IL-13, 12 h.
Text: Following this line of investigation, we employed siRNA for the transient knockdown of MK2 in THP‐1 monocyte‐ differentiated macrophages. […] M2 macrophages play a pivotal role in promoting tumor angiogenesis through the secretion of critical factors like VEGF, which facilitate tumor neovascularization.[17] […] These findings further validate the significance of MK2 in the M2 polarization of macrophages and illustrate how compound 11, by targeting MK2, suppresses the pro‐tumorigenic phenotype of macrophages.
as §3
Figure S3 Inhibition of pro-tumorigenic M2-like polarization in macrophages by compound 11. (A) Illustrates the treatment effects on various macrophage cells using Western blot analysis post IL-4/IL-13 exposure (30 minutes or the specified time period). (B) Examines CD206 expression in RAW264.7 cells via flow cytometry post 48hours treatment of compound 11 and IL-4/IL-13. […] IL-4/IL-13 (20 ng/mL) served as the stimulation control, while untreated cells were the baseline control. […]

What is called IC50 is the point on the concentration scale where inhibition reaches its midpoint. For the compound `C=CC(=O)Nc1cc(-c2cc(-c3cc4c([nH]3)CCNC4=O)ccn2)ccc1OC(F)(F)F` [compound 11], the IC50 at 72 h in data set [1] was found to be 47.8 ± 2.8 µM; in data set [2] it was 48.3 ± 10.5 µM. The “effect on LPS-induced TNF-α, IL-6 and IL-1 mRNA expression” value in data set [3] was “significantly inhibited”. The “effect on relative mRNA level of VEGF” value in the data set on VEGF mRNA in THP-1 cells is on record as “inhibited”.

The record behind these values is paper PMC11233931, “Remodeling tumor‐associated macrophage for anti‐cancer effects by rational design of irreversible inhibition of mitogen‐activated protein kinase‐activated protein kinase 2” (MedComm, 2024).
